The record followed here is patent US10172358B2, “Thiopicolinamide compounds with fungicidal activity” (Dow AgroSciences LLC, priority 2016, dated 2019).

Where two headings read alike, the source gives them in different places. A value given as a limit tells only on which side of the number the result lay.

One experiment relates to Puccinia triticina. The experiment can be described thus: Fungicidal activity: wheat brown rust (PUCCRT), disease control on wheat seedlings. It is filed as in vivo, Puccinia triticina on wheat plants (variety Yuma). To be noted: low volume application, 121.5 g/H. The procedure:
Technical grades of materials were dissolved in acetone, which were then mixed with nine volumes of water (H2O) containing 110 ppm Triton X-100. The fungicide solutions were applied onto wheat seedlings using an automated booth sprayer to run-off. All sprayed plants were allowed to air dry prior to further handling. All fungicides were evaluated using the aforementioned method for their activity vs. all target diseases, unless stated otherwise. Wheat leaf blotch and brown rust activity were also evaluated using track spray applications, in which case the fungicides were formulated as EC formulations, containing 0.1% Trycol 5941 in the spray solutions. Evaluation of Fungicidal Activity: Wheat Brown Rust (Puccinia triticina; Synonym: Puccinia recondita f. Sp. Tritici; Bayer Code PUCCRT) Wheat plants (variety Yuma) were grown from seed in a greenhouse in 50% mineral soil/50% soil-less Metro mix until the first leaf was fully emerged, with 7-10 seedlings per pot. These plants were inoculated with an aqueous spore suspension of Puccinia triticina either prior to or after fungicide treatments. After inoculation the plants were kept in a dark dew room at 22° C. with 100% relative humidity overnight to permit spores to germinate and infect the leaf. The plants were then transferred to a greenhouse set at 24° C. for disease to develop. Fungicide formulation, application and disease assessment followed the procedures as described in the Example A. The results of the evalution are shown below in Table 4.

A further experiment deals with Phakopsora pachyrhizi. Nature of the experiment: Fungicidal activity: Asian soybean rust (PHAKPA), disease control on soybean seedlings. It is filed as in vivo. The procedure: Evaluation of Fungicidal Activity: Asian Soybean Rust (Phakopsora Pachyrhizi; Bayer Code PHAKPA)
Technical grades of materials were dissolved in acetone, which were then mixed with nine volumes of H2O containing 0.011% Tween 20. The fungicide solutions were applied onto soybean seedlings using an automated booth sprayer to run-off. All sprayed plants were allowed to air dry prior to further handling.
Soybean plants (variety Williams 82) were grown in soil-less Metro mix, with one plant per pot. Two weeks old seedlings were used for testing. Plants were inoculated either 3 days prior to or 1 day after fungicide treatments. Plants were incubated for 24 h in a dark dew room at 22° C. and 100% relative humidity then transferred to a growth room at 23° C. for disease to develop. Disease severity was assessed on the sprayed leaves.

For the next experiment, the system named is Zymoseptoria tritici. The experiment can be described thus: Fungicidal activity: leaf blotch of wheat (SEPTTR), disease control on wheat seedlings. To be noted: low volume application, 121.5 g/H. It is filed as in vivo, Zymoseptoria tritici on wheat plants (variety Yuma). Here is the method:
Evaluation of Fungicidal Activity: Leaf Blotch of Wheat (Zymoseptoria Tritici; Bayer Code […]) Technical grades of materials were dissolved in acetone, which were then mixed with nine volumes of water (H2O) containing 110 ppm Triton X-100. The fungicide solutions were applied onto wheat seedlings using an automated booth sprayer to run-off. All sprayed plants were allowed to air dry prior to further handling. All fungicides were evaluated using the aforementioned method for their activity vs. all target diseases, unless stated otherwise. Wheat leaf blotch and brown rust activity were also evaluated using track spray applications, in which case the fungicides were formulated as EC formulations, containing 0.1% Trycol 5941 in the spray solutions. Wheat plants (variety Yuma) were grown from seed in a greenhouse in 50% mineral soil/50% soil-less Metro mix until the first leaf was fully emerged, with 7-10 seedlings per pot. These plants were inoculated with an aqueous spore suspension of Zymoseptoria tritici either prior to or after fungicide treatments. After inoculation the plants were kept in 100% relative humidity (one day in a dark dew chamber followed by two to three days in a lighted dew chamber at 20° C.) to permit spores to germinate and infect the leaf. The plants were then transferred to a greenhouse set at 20° C. for disease to develop. When disease symptoms were fully expressed on the 1st leaves of untreated plants, infection levels were assessed on a scale of 0 to 100 percent disease severity. Percent disease control was calculated using the ratio of disease severity on treated plants relative to untreated plants.

[1] abbreviates: 72 h, 3 day curative, read-out: PUCCRT 3DC disease control, LV activity at 121.5 g/H.
[2] abbreviates: 24 h, 1 day protectant, read-out: PHAKPA 1DP disease control at 25 ppm.
Setting [3] is: 24 h, 1 day protectant, read-out: PUCCRT 1DP disease control, LV activity at 121.5 g/H.
Where [4] appears, read: 24 h, 1 day protectant, read-out: SEPTTR 1DP disease control, LV activity at 121.5 g/H.
The mark [5] stands for this setting: 72 h, 3 day curative, read-out: SEPTTR 3DC disease control, LV activity at 121.5 g/H.
The mark [6] stands for this setting: 72 h, 3 day curative, read-out: PHAKPA 3DC disease control at 25 ppm.

With `COc1ccnc(C(=S)N[C@@H](C)C(=O)O[C@H](CC(C)C)[C@H](C)Oc2ccccc2)c1OC(C)=O` [Compound 40], in the experiment with Puccinia triticina (setting [1]), the pest or weed control at 121.5 g/ha is ≤ 80%. For the same compound, the pest or weed control at 25 ppm in the experiment on Phakopsora pachyrhizi (setting [2]) was ≤ 80%.

Consider `COc1ccnc(C(=S)N[C@@H](C)C(=O)O[C@@H](C)[C@H](Oc2ccc(Cl)cc2)C(C)C)c1OC(C)=O` [Compound 43], for which the pest or weed control at 121.5 g/ha is > 80% in the experiment with Puccinia triticina (setting [3]), > 80% with Puccinia triticina (setting [1]), > 80% with Zymoseptoria tritici (setting [4]) and ≤ 80% with Zymoseptoria tritici (setting [5]).

As to `COc1cc(F)ccc1[C@H](c1ccccc1)[C@H](C)OC(=O)[C@H](C)NC(=S)c1nccc(OC)c1OC(C)=O` [Compound 44], the pest or weed control at 121.5 g/ha in the experiment with Puccinia triticina (setting [3]) was > 80%; in the experiment with Puccinia triticina (setting [1]), ≤ 80%; in the experiment on Zymoseptoria tritici (setting [4]) it was > 80%; in the experiment on Zymoseptoria tritici (setting [5]), > 80%.

For `COc1cc(F)ccc1[C@H](c1ccc(C)cc1)[C@H](C)OC(=O)[C@H](C)NC(=S)c1nccc(OC)c1OC(C)=O` [Compound 45], the pest or weed control at 121.5 g/ha in the experiment on Puccinia triticina (setting [3]), in the experiment with Puccinia triticina (setting [1]), in the experiment with Zymoseptoria tritici (setting [4]) and in the experiment on Zymoseptoria tritici (setting [5]) was > 80% each time.

With `COc1ccnc(C(=S)N[C@@H](C)C(=O)O[C@@H](C)[C@@H](c2ccc(C)cc2)c2ccc(F)cc2C)c1OC(C)=O` [Compound 46], the pest or weed control at 121.5 g/ha in the experiment on Puccinia triticina (setting [3]), with Puccinia triticina (setting [1]), with Zymoseptoria tritici (setting [4]) and in the experiment on Zymoseptoria tritici (setting [5]) was > 80% each time.

On to `COc1ccnc(C(=S)N[C@@H](C)C(=O)O[C@@H](C)C(c2ccc(Cl)cc2)c2ccc(Cl)cc2)c1OC(C)=O` [Compound 47], for which the pest or weed control at 121.5 g/ha with Puccinia triticina (setting [3]) was > 80%; in the experiment on Puccinia triticina (setting [1]), ≤ 80%; in the experiment on Zymoseptoria tritici (setting [4]) it was > 80%; in the experiment with Zymoseptoria tritici (setting [5]), > 80%.

As for `COc1ccnc(C(=S)N[C@@H](C)C(=O)O[C@@H](C)C(c2ccc(C)cc2C)c2ccc(C)cc2C)c1OC(C)=O` [Compound 48], the pest or weed control at 121.5 g/ha in the experiment with Puccinia triticina (setting [3]), in the experiment on Zymoseptoria tritici (setting [4]) and in the experiment on Zymoseptoria tritici (setting [5]) was > 80% throughout.

On to `COc1ccnc(C(=S)N[C@@H](C)C(=O)O[C@@H](C)[C@H](Oc2ccc(Cl)cc2Cl)c2ccccc2)c1OC(C)=O` [Compound 49], for which the pest or weed control at 121.5 g/ha in the experiment on Puccinia triticina (setting [3]) and with Zymoseptoria tritici (setting [4]) was ≤ 80% in each case.

`COc1ccnc(C(=S)N[C@@H](C)C(=O)O[C@@H](C)C(c2ccc(C)cc2)c2ccc(C)cc2)c1OC(C)=O` [Compound 50]: the pest or weed control at 121.5 g/ha with Puccinia triticina (setting [3]), in the experiment on Puccinia triticina (setting [1]), in the experiment with Zymoseptoria tritici (setting [4]) and with Zymoseptoria tritici (setting [5]) was > 80% in each case.

Consider `COc1ccnc(C(=S)N[C@@H](C)C(=O)O[C@@H](C)[C@@H](c2ccccc2)c2ccc(F)cc2)c1OC(C)=O` [Compound 51], for which the pest or weed control at 121.5 g/ha in the experiment on Puccinia triticina (setting [3]) was > 80%; in the experiment on Puccinia triticina (setting [1]) it was ≤ 80%; in the experiment with Zymoseptoria tritici (setting [4]), > 80%; with Zymoseptoria tritici (setting [5]), > 80%.

Take `COc1cc(Cl)ccc1C(c1ccc(Cl)cc1OC)[C@H](C)OC(=O)[C@H](C)NC(=S)c1nccc(OC)c1OC(C)=O` [Compound 52]: the pest or weed control at 121.5 g/ha is > 80% in the experiment on Puccinia triticina (setting [3]), ≤ 80% with Puccinia triticina (setting [1]), > 80% with Zymoseptoria tritici (setting [4]) and > 80% in the experiment with Zymoseptoria tritici (setting [5]).

In the case of `COc1ccc(C(c2ccc(OC)cc2F)[C@H](C)OC(=O)[C@H](C)NC(=S)c2nccc(OC)c2OC(C)=O)c(F)c1` [Compound 53], the pest or weed control at 121.5 g/ha with Puccinia triticina (setting [3]) is > 80%; in the experiment with Puccinia triticina (setting [1]) it was ≤ 80%; in the experiment on Zymoseptoria tritici (setting [4]), > 80%; with Zymoseptoria tritici (setting [5]) it was > 80%.

Consider `COc1ccccc1C(c1ccccc1OC)[C@H](C)OC(=O)[C@H](C)NC(=S)c1nccc(OC)c1OC(C)=O` [Compound 54], for which the pest or weed control at 121.5 g/ha in the experiment on Puccinia triticina (setting [3]), in the experiment with Zymoseptoria tritici (setting [4]) and in the experiment on Zymoseptoria tritici (setting [5]) was > 80% throughout.

On to `COc1ccnc(C(=S)N[C@@H](C)C(=O)O[C@H](C(C)C)[C@H](C)Oc2ccc(C)cc2)c1OC(C)=O` [Compound 56], for which the pest or weed control at 121.5 g/ha was > 80% with Puccinia triticina (setting [3]), > 80% with Puccinia triticina (setting [1]), ≤ 80% in the experiment on Zymoseptoria tritici (setting [4]) and ≤ 80% in the experiment on Zymoseptoria tritici (setting [5]).

Regarding `COc1ccnc(C(=S)N[C@@H](C)C(=O)O[C@@H](C)[C@H](Oc2ccccc2Cl)c2ccccc2)c1OC(C)=O` [Compound 57, (1R,2S)-1-(2-chlorophenoxy)-1-phenylpropan-2-yl (3-acetoxy-4-methoxypyridine-2-carbonothioyl)-L-alaninate], the pest or weed control at 121.5 g/ha with Puccinia triticina (setting [3]) was > 80%; with Puccinia triticina (setting [1]), ≤ 80%; in the experiment with Zymoseptoria tritici (setting [4]) it was > 80%; in the experiment with Zymoseptoria tritici (setting [5]) it was > 80%.

Regarding `COc1ccc(O[C@@H](C)[C@H](OC(=O)[C@H](C)NC(=S)c2nccc(OC)c2OC(C)=O)C(C)C)cc1` [Compound 58], the pest or weed control at 121.5 g/ha with Puccinia triticina (setting [3]), in the experiment on Puccinia triticina (setting [1]), in the experiment with Zymoseptoria tritici (setting [4]) and in the experiment on Zymoseptoria tritici (setting [5]) was > 80% in each case.

With `COc1ccnc(C(=S)N[C@H](C)C(=O)O[C@@H](C)C(c2ccc(F)cc2)c2ccc(F)cc2)c1OC(C)=O` [Compound 59], the pest or weed control at 121.5 g/ha is ≤ 80% in the experiment on Puccinia triticina (setting [3]), ≤ 80% in the experiment with Puccinia triticina (setting [1]) and > 80% with Zymoseptoria tritici (setting [4]).

With `C=CC[C@@H](Oc1ccccc1)[C@H](C)OC(=O)[C@H](C)NC(=S)c1nccc(OC)c1OC(C)=O` [Compound 60], the pest or weed control at 121.5 g/ha with Puccinia triticina (setting [3]) was > 80%; in the experiment with Puccinia triticina (setting [1]), > 80%; in the experiment on Zymoseptoria tritici (setting [4]) it was ≤ 80%; with Zymoseptoria tritici (setting [5]) it was ≤ 80%.

Regarding `COc1ccnc(C(=S)N[C@@H](C)C(=O)O[C@H](C(C)C)[C@H](C)Oc2ccccc2)c1OC(C)=O` [Compound 61], the pest or weed control at 121.5 g/ha in the experiment with Puccinia triticina (setting [3]) was > 80%; with Puccinia triticina (setting [1]), > 80%; with Zymoseptoria tritici (setting [4]), ≤ 80%; with Zymoseptoria tritici (setting [5]), > 80%. Also, the pest or weed control at 25 ppm in the experiment with Phakopsora pachyrhizi (setting [2]) and with Phakopsora pachyrhizi (setting [6]) was > 80% throughout.

In the case of `CCC[C@@H](Oc1ccc(C)cc1)[C@H](C)OC(=O)[C@H](C)NC(=S)c1nccc(OC)c1OC(C)=O` [Compound 62], the pest or weed control at 121.5 g/ha in the experiment on Puccinia triticina (setting [3]) was > 80%; with Puccinia triticina (setting [1]), > 80%; in the experiment with Zymoseptoria tritici (setting [4]), ≤ 80%. Moreover, the pest or weed control at 25 ppm in the experiment with Phakopsora pachyrhizi (setting [2]) and with Phakopsora pachyrhizi (setting [6]) was ≤ 80% in each case.

For the compound `CC[C@H](OC(=O)[C@H](C)NC(=S)c1nccc(OC)c1OC(C)=O)[C@@H](C)Oc1ccccc1` [Compound 66], the pest or weed control at 121.5 g/ha with Puccinia triticina (setting [3]) and in the experiment on Puccinia triticina (setting [1]) was ≤ 80% in each case. In addition, the pest or weed control at 25 ppm in the experiment on Phakopsora pachyrhizi (setting [2]) and in the experiment with Phakopsora pachyrhizi (setting [6]) was ≤ 80% each time.

For `CCC[C@H](OC(=O)[C@H](C)NC(=S)c1nccc(OC)c1OC(C)=O)[C@@H](C)Oc1ccccc1` [Compound 76], the pest or weed control at 25 ppm with Phakopsora pachyrhizi (setting [2]) was ≤ 80%.
